Consider seven molecules from patent US20060167229A1, “Biologically active peptide conjugates” (priority 2002, published 2006).

Holding throughout (format): in vivo, BALB/c mice
One experiment deals with NK cell. The experiment in a line: NK cell cytotoxicity activity test (spleen cells of treated mice against YAC-1 target cells, MTT). The conditions noted are these: for NK cell cytotoxic activity, X ± SD (%): healthy mice; for effect on the cytotoxic activity of NK cells (summary): statistically significant difference from saline in any of the dosage groups 0.5-500 μg/kg/day. Put shortly: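 YAC-1 target cells (1×10^5/ml) mixed with splenocytes (4×10^6/ml) from mice given test substances i.p. daily for 15 days (10 mice/group). Effector-only and target-only wells served as controls. MTT added at 1 mg/ml for 4 h at 37 °C; absorbance read at 570/630 nm.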

In another experiment the test system is thymus gland. The experiment in a line: Immunity organ weight test, thymus gland index. The conditions noted are these: for weight of thymus gland (thymus gland index), X ± SD (%): healthy mice, saline 0.12 ± 0.02; for effect on the weight of the thymus gland (summary): statistically significant difference from saline in any of the dosage groups 0.5-500 μg/kg/day. The procedure:
One day after the last test substance administration (day 16), the liver, spleen, and thymus gland were separated and blotted dry with filter paper and weighed. The phagocytosis index α was calculated as below: α=(^3√{square root over ( )}K)(W÷WLS)
Thymus gland index (%)=(thymus weight/body weight)×100%

Another experiment concerns mononuclear phagocyte. The experiment is described as follows: Carbon particle clearance test, phagocytosis function. The arrangement: key to X ± SD (phagocytotic index): α = cube root of K × (body weight ÷ liver+spleen weight). The settings on record: for X ± SD (phagocytotic index): healthy mice, saline 5.1 ± 0.6; for effect on the phagocytotic activity of mononuclear phagocyte (summary): statistically significant difference from saline in any of the dosage groups 0.5-500 μg/kg/day. Put shortly:
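Clearance index K came from OD680 of blood sampled 1 and 5 min after tail-vein India ink ([…], diluted 5×), given on day 16. Phagocytic index α combined K with liver, spleen […] weights taken the same day.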

Another experiment deals with anti-SRBC antibody. The experiment in a line: Sheep Red Blood Cell (SRBC) hemolysis test, antibody formation. The settings on record: for anti-SRBC antibody formation, X ± SD (Unit): healthy mice, SRBC day 12 (IFN-γ, IL-2 3×10^5 IU/kg/day), saline 32 ± 7; for effect on the synthesis of anti-SRBC antibody upon the antigenic challenge (summary): statistically significant difference from saline in any of the dosage groups 0.5-500 μg/kg/day. Put shortly:
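Antibody formation was read as haemolysis: 500-fold diluted serum, collected on day 16 after intraperitoneal SRBC (0.2 ml, day 12), was mixed with 2% SRBC plus complement for 10 min at 37° C. Supernatant haemoglobin measured with Drabkin reagent at OD540, indexed against a reference SRBC lysate ×500.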

The mark [1] stands for this setting: peptide 0.5 μg/kg/day i.p. 15 days (IFN-γ, IL-2 3×10^5 IU/kg/day), saline 58 ± 7.
Where [2] appears, read: peptide 0.5 μg/kg/day i.p. 15 days (IFN-γ, IL-2 3×10^5 IU/kg/day).
[3] abbreviates: peptide 5 μg/kg/day i.p. 15 days (IFN-γ, IL-2 3×10^5 IU/kg/day).
The mark [4] stands for this setting: peptide 50 μg/kg/day i.p. 15 days (IFN-γ, IL-2 3×10^5 IU/kg/day).
[5] abbreviates: peptide 500 μg/kg/day i.p. 15 days (IFN-γ, IL-2 3×10^5 IU/kg/day).
Where [6] appears, read: peptide 50 μg/kg/day i.p. 15 days.
[7] abbreviates: peptide 500 μg/kg/day i.p. 15 days.
Where [8] appears, read: peptide 500 μg/kg/day i.p. 15 days (IFN-γ, IL-2 3×10^5 IU/kg/day), saline 63 ± 9.
[9] abbreviates: peptide 5 μg/kg/day i.p. 15 days.
[10] abbreviates: peptide 5 μg/kg/day i.p. 15 days (IFN-γ, IL-2 3×10^5 IU/kg/day), saline 60 ± 9.
The mark [11] stands for this setting: peptide 0.5 μg/kg/day i.p. 15 days.
[12] abbreviates: peptide 50 μg/kg/day i.p. 15 days (IFN-γ, IL-2 3×10^5 IU/kg/day), saline 56 ± 8.

Marks after values point to notes of the source that are not given here. Ends that are not written are not given here.

As to “Tyr Ser Phe (YSF; listed as Sus scrofa) [CMS022]”, the “NK cell cytotoxic activity, X ± SD (%)” value in the experiment with NK cell (setting [1]) came to 73 ± 11 %. Also, the “effect on the cytotoxic activity of NK cells (summary)” value (from here on “effect on the cytotoxic activity”) in the experiment on NK cell is on record as “increase”. Moreover, the “weight of thymus gland (thymus gland index), X ± SD (%)” value is on record as 0.21 ± 0.06 % in the experiment on thymus gland (setting [2]), 0.25 ± 0.04*^@^ % in the experiment with thymus gland (setting [3]), 0.30 ± 0.03*^@^ % with thymus gland (setting [4]) and 0.26 ± 0.05*^@^ % in the experiment on thymus gland (setting [5]). The “effect on the weight of the thymus gland (summary)” value (shortened to “effect on the weight”) in the experiment with thymus gland was “increase”. For the same molecule, the “X ± SD (phagocytotic index)” value with mononuclear phagocyte (setting [5]) is 7.4 ± 0.6*^@^. Further, the “effect on the phagocytotic activity of mononuclear phagocyte (summary)” value (“effect on the phagocytotic activity” for short) in the experiment on mononuclear phagocyte is “enhance”. Also, the “anti-SRBC antibody formation, X ± SD (Unit)” value in the experiment on anti-SRBC antibody (setting [6]) was 110 ± 16*^@^ Unit; in the experiment with anti-SRBC antibody (setting [7]), 68 ± 31*^@ Unit. For the same molecule, the “effect on the synthesis of anti-SRBC antibody upon the antigenic challenge (summary)” value (from here on “effect on the synthesis”) in the experiment with anti-SRBC antibody is “enhance”.

Consider IGMESAGIHETTY [CMS016], for which, in the experiment with NK cell (setting [8]), the “NK cell cytotoxic activity, X ± SD (%)” value is 91 ± 7*^@^ %. For the same molecule, in the experiment with NK cell, the “effect on the cytotoxic activity” value is recorded as “increase”. Also, the “weight of thymus gland (thymus gland index), X ± SD (%)” value in the experiment on thymus gland (setting [3]) was 0.22 ± 0.06 %; with thymus gland (setting [4]), 0.20 ± 0.03*^@^ %; in the experiment with thymus gland (setting [5]) it was 0.18 ± 0.05 %. Also, in the experiment on thymus gland, the “effect on the weight” value is “increase”. In the experiment with mononuclear phagocyte (setting [3]), the “X ± SD (phagocytotic index)” value is listed as 6.9 ± 0.8*^. In the experiment on mononuclear phagocyte, the “effect on the phagocytotic activity” value is “enhance”. The “anti-SRBC antibody formation, X ± SD (Unit)” value in the experiment on anti-SRBC antibody (setting [9]) is given as 93 ± 32*^@ Unit; with anti-SRBC antibody (setting [7]) it was 143 ± 38*^@^ Unit. The “effect on the synthesis” value in the experiment on anti-SRBC antibody is reported as “enhance”.

Consider VAPEEHPTLLTEAPLNPK [CMS010], for which the “NK cell cytotoxic activity, X ± SD (%)” value in the experiment on NK cell (setting [10]) was 82 ± 9 %; in the experiment on NK cell (setting [8]), 91 ± 4*^@^ %. Besides, the “effect on the cytotoxic activity” value with NK cell is “increase”. In addition, the “weight of thymus gland (thymus gland index), X ± SD (%)” value with thymus gland (setting [2]) is 0.21 ± 0.03 %; in the experiment on thymus gland (setting [3]) it was 0.27 ± 0.05*^@^ %; with thymus gland (setting [5]), 0.19 ± 0.04 %. Also, in the experiment with thymus gland, the “effect on the weight” value is “increase”. In the experiment with mononuclear phagocyte (setting [3]), the “X ± SD (phagocytotic index)” value is 7.1 ± 0.7*^. In addition, in the experiment with mononuclear phagocyte, the “effect on the phagocytotic activity” value is given as “enhance”. Besides, the “anti-SRBC antibody formation, X ± SD (Unit)” value with anti-SRBC antibody (setting [11]) is 10 ± 3 Unit; with anti-SRBC antibody (setting [7]), 112 ± 30*^@^ Unit.

“Phe Val Asn Asp (FVND; listed as Sus scrofa) [CMS035]”: the “NK cell cytotoxic activity, X ± SD (%)” value with NK cell (setting [1]) was 76 ± 10 %; in the experiment on NK cell (setting [12]), 72 ± 9 %; in the experiment on NK cell (setting [8]), 90 ± 10 %. In addition, the “effect on the cytotoxic activity” value in the experiment with NK cell was “increase”. In addition, the “weight of thymus gland (thymus gland index), X ± SD (%)” value with thymus gland (setting [3]) was 0.21 ± 0.04 %; in the experiment on thymus gland (setting [5]) it was 0.21 ± 0.03*^@^ %. Moreover, the “effect on the weight” value in the experiment with thymus gland is “increase”. The “X ± SD (phagocytotic index)” value in the experiment with mononuclear phagocyte (setting [3]) is reported as 6.9 ± 0.9*^. Besides, in the experiment on mononuclear phagocyte, the “effect on the phagocytotic activity” value is given as “enhance”. Further, the “anti-SRBC antibody formation, X ± SD (Unit)” value was 176 ± 39*^@^ Unit in the experiment on anti-SRBC antibody (setting [9]), 97 ± 10*^@^ Unit with anti-SRBC antibody (setting [6]) and 88 ± 16*^@ Unit in the experiment with anti-SRBC antibody (setting [7]). For the same molecule, the “effect on the synthesis” value in the experiment on anti-SRBC antibody was “enhance”.

With KAVGHLDDLPGAL [CMS008], the “NK cell cytotoxic activity, X ± SD (%)” value is on record as 46 ± 12 % in the experiment with NK cell (setting [1]) and 92 ± 4*^@^ % in the experiment on NK cell (setting [10]). For the same molecule, the “weight of thymus gland (thymus gland index), X ± SD (%)” value with thymus gland (setting [2]) is 0.22 ± 0.07*^ %; in the experiment with thymus gland (setting [4]) it was 0.20 ± 0.04*^@^ %; in the experiment with thymus gland (setting [5]), 0.21 ± 0.03*^@^ %. The “effect on the weight” value in the experiment on thymus gland was “increase”. The “X ± SD (phagocytotic index)” value came out at 6.4 ± 0.5 in the experiment with mononuclear phagocyte (setting [3]) and 6.5 ± 1.2 in the experiment on mononuclear phagocyte (setting [5]). In the experiment on mononuclear phagocyte, the “effect on the phagocytotic activity” value is “enhance”. The “anti-SRBC antibody formation, X ± SD (Unit)” value in the experiment with anti-SRBC antibody (setting [9]) is on record as 97 ± 26*^@ Unit; with anti-SRBC antibody (setting [7]), 82 ± 15*^@ Unit. Also, the “effect on the synthesis” value with anti-SRBC antibody is reported as “enhance”.

With VGMGQKDSYV [CMS020], the “NK cell cytotoxic activity, X ± SD (%)” value with NK cell (setting [10]) was 91 ± 6 %. Further, the “effect on the cytotoxic activity” value with NK cell is listed as “increase”. Moreover, the “weight of thymus gland (thymus gland index), X ± SD (%)” value in the experiment on thymus gland (setting [2]) is listed as 0.23 ± 0.05*^@^ %; with thymus gland (setting [3]), 0.24 ± 0.07*^@^ %; in the experiment with thymus gland (setting [4]) it was 0.27 ± 0.03*^@^ %; with thymus gland (setting [5]) it was 0.19 ± 0.04 %. The “effect on the weight” value in the experiment on thymus gland was “increase”. Besides, the “X ± SD (phagocytotic index)” value with mononuclear phagocyte (setting [5]) came to 6.4 ± 0.6. In addition, the “effect on the phagocytotic activity” value with mononuclear phagocyte is listed as “enhance”. In addition, the “anti-SRBC antibody formation, X ± SD (Unit)” value in the experiment on anti-SRBC antibody (setting [11]) was 10 ± 3 Unit; with anti-SRBC antibody (setting [9]), 89 ± 24*^@ Unit; in the experiment on anti-SRBC antibody (setting [7]) it was 155 ± 35*^@^ Unit.

B1: IFN-γ: recombinant mouse IFN-γ (rmIFN-γ), Beijing Biotech Inc.; positive control (protein, UniProt P01580 23-155, looked up)
Interferon gamma: HGTVIESLESLNNYFNSSGIDVEEKSLFLDIWRNWQKDGDMKILQSQIISFYLRLFEVLKDNQAISNNISVIESHLITTFFSNSKAKKDAFMSIAKFEVNNPQVQRQAFNELIRVVHQLLPESSLRKRKRSRC
B1: the “NK cell cytotoxic activity, X ± SD (%)” value in the experiment with NK cell (setting [1]) is 72 ± 9 %; with NK cell (setting [10]) it was 80 ± 8 %; with NK cell (setting [12]) it was 73 ± 10 %; in the experiment on NK cell (setting [8]), 77 ± 8 %. In addition, the “weight of thymus gland (thymus gland index), X ± SD (%)” value with thymus gland (setting [2]), with thymus gland (setting [3]), in the experiment with thymus gland (setting [4]) and with thymus gland (setting [5]) was 0.15 ± 0.04% in each case. Besides, the “X ± SD (phagocytotic index)” value in the experiment with mononuclear phagocyte (setting [2]), with mononuclear phagocyte (setting [3]), in the experiment with mononuclear phagocyte (setting [4]) and with mononuclear phagocyte (setting [5]) was 6.4 ± 0.9 each time. For the same molecule, the “anti-SRBC antibody formation, X ± SD (Unit)” value in the experiment on anti-SRBC antibody (setting [11]), with anti-SRBC antibody (setting [9]), with anti-SRBC antibody (setting [6]) and in the experiment on anti-SRBC antibody (setting [7]) was 37 ± 10 Unit in each case.
